These are literature values, as cited in article PMC9298070, “Lack of a Clinically Meaningful Drug Interaction Between the HIV‐1 Antiretroviral Agents Islatravir, Dolutegravir, and Tenofovir Disoproxil Fumarate” (Clinical Pharmacology in Drug Development, 2021).

Details of this data set: method as in PMID 34452431. Particulars: cited from earlier work.

As for `C#C[C@]1(CO)O[C@@H](n2cnc3c(N)nc(F)nc32)C[C@@H]1O` [Islatravir, 4′‐Ethynyl‐2‐fluoro‐2′‐deoxyadenosine], the plasma protein binding entry is given as “low”.
